The test relates to Lu99 KRAS G12C lung carcinoma xenograft. Kind of test: Anti-tumor efficacy in Lu99 KRAS G12C lung carcinoma xenografts. Type of test: in vivo, mice. Particulars: Lu99, oral, Compound A 100 mg/kg once daily, alone or in combination.

Protocol: It carries the allele NM_033360.4(KRAS):c.34G>T and consequently a heterozygous KRAS Gly12Cys mutation. Lu99 cells were grown in sterile conditions in a 37° C. incubator with 5% CO2 for two weeks. The cells were kept in RPMI media supplemented with 10% FCS, 2 mM L-Glutamin, 1 mM sodium pyruvate and 10 mM HEPES, and split 1:6 every 3 days. […] On the day of injection, cells were harvested after 8 passages in total, including passages from the vendor. Cells were resuspended in 50% HBSS and 50% Matrigel at a final concentration of 10·10^6 cells/ml.
Experiments were performed with female nude mice (Charles River Laboratories, Crl:NU(NCr)-Foxn1nu Homozygous). […] Animals were allowed to accommodate at least for 7 days.
Mice were injected subcutaneously with Lu99 human NSCLC cells to induce xenograft tumors and randomized into treatment groups when the mean tumor volume reached ˜250 mm^3.
The control group received a solution of 0.1% Tween 80 (Fisher Scientific AG #BP338-500) and 0.5% Methylcellulose in water.
The treatment period was between 9 to 28 days, depending on the groups.
Tumor growth was monitored regularly post cell inoculation and animals were randomized into treatment groups (n=6) when TV reached appropriate volume. During the treatment period, xenograft tumor sizes were measured about 2-3 times per week manually with calipers, and the TV was estimated in mm^3 using the formula: Length×Width^2/2.
Mice were injected subcutaneously with Lu99 human NSCLC cells to induce xenograft tumors and randomized into treatment groups when the mean tumor volume reached ˜200 mm^3. […] The treatment period was between 14 to 35 days, depending on the groups. Animals treated with vehicle were terminated at day 14. […] Tumor volumes were recorded and are represented as mean±SEM (standard error of the mean) for each group. Anti-tumor response of treatment groups vs. vehicle group was calculated at day 14 as % T/C or % regression.

With `C[C@@H]1OCC2(CCN(c3cnc(Sc4ccnc(N)c4Cl)c(N)n3)CC2)[C@@H]1N` [TNO155, (3S,4S)-8-(6-amino-5-((2-amino-3-chloropyridin-4-yl)thio)pyrazin-2-yl)-3-methyl-2-oxa-8-azaspiro[4.5]decan-4-amine], the “anti-tumor response (Example 7)” value (TNO155 10 mg/kg twice daily continuous) is on record as “slight tumor growth delay”. Besides, under “TNO155 10 mg/kg twice daily, up to 28 days”, the “anti-tumor response (Example 6)” value is reported as “moderate anti-tumor response”.
